Each structure is given as a SMILES string.

The nature of series [1]: Body fat and lean body mass measured by DXA, 12-week human application test. The format is in vivo. To be noted: for Lean, 12 W, Mean / Fat, Difference (average change at 12 weeks compared to base time) / Lean, Difference (12 W vs baseline): ITT 33; for Fat, 12 W, Mean: ITT 33 overweight/obese adults. How it is done: After conducting a screening test for those who heard the detailed description of the purpose and research method of the present example and agreed in writing as subjects, those who met the selection/exclusion criteria were selected. The specific selection criteria are as follows, and the final selected subjects are 99 men and women who are overweight or obese, and the demographic information of the selected subjects is shown in the following Table 1. The efficacy test was performed by dividing 99 selected test subjects into 3 groups, and by providing three products to the high-dose group (33 people), low-dose group (33 people), and control group (33 people), respectively. The allulose high-dose product was provided to the high-dose test group, and the allulose low-dose product was provided to the low-dose test group, and placebo product was provided to the control group. Ninety nine (99) subjects were randomly assigned to the high-dose group, low-dose group or control group, with including 33 subjects in each test group. In three test groups, the products were mixed in 100 ml of water and were administered orally twice a day. As the daily dose for one test subject, 12 g allulose in the high-dose group, 6 g allulose and 6 g anhydrous glucose in the low-dose group, and 12 g anhydrous glucose in the control group were divided and provided twice a day. It was administered from the day after the random assignment day (0 day), and was taken with drinking water twice at morning and evening with meals for 12 weeks. At the random assignment day (0 day), the efficacy evaluation items and safety evaluation items such as DXA measurement and the like were checked, and the evaluation items were also checked through hospital outpatient visit at 4 weeks, 8 weeks and 12 weeks from the day of beginning administration of test products. In addition, during the human application test, the usual physical activity of subjects was investigated using Korean version of International Physical Activity Questionnaire (IPAQ). During the human application test period, the subjects were trained to maintain the activity amount being similar to normal physical activity. At each hospital outpatient visit, the amount of meal intake was examined by the recording board made by the subjects. The subjects were trained to maintain the amount of meal intake being similar to the usual amount with avoiding overeating condition. At the time of second hospital visit (visit 2) and final hospital visit (visit 5), the body fat ratio and body fat were measured using prodigy DXA of U.S. Lunar Company. For the body fat measured by DXA, after calculating the change of the body fat after 12 weeks compared to the base time, technical statistics (mean, standard deviation, median value, minimum value, maximum value) were obtained. The comparative statistic test for the three groups was performed using ANOVA or Kruscal-Wallis test by testing whether data were normally distributed. When there was a significant difference between the three groups, the multiple comparison was conducted through Tukey-Kramer method. In order to find out whether there was a difference in the mean change in a group, it was analyzed using Paired t-test or Wilcoxon's signed rank test.

Series [2] in a line: Liver CT: degree of fat deposition in the liver (HU of liver and spleen), human application test. The format is in vivo. The following applies: for Liver HU Mean, 12 W, Mean / Liver - Spleen HU (Liver minus Spleen), 12 W, Mean / Spleen HU Mean, 12 W, Mean: 12 weeks; for Liver HU Mean, 12 W, Mean / Liver HU Mean, Difference (12 W vs base line): ITT 33. An excerpt: After conducting a screening test for those who heard the detailed description of the purpose and research method of the present example and agreed in writing as subjects, those who met the selection/exclusion criteria were selected. The specific selection criteria are as follows, and the final selected subjects are 99 men and women who are overweight or obese, and the demographic information of the selected subjects is shown in the following Table 1. Ninety nine (99) subjects were randomly assigned to the high-dose group, low-dose group or control group, with including 33 subjects in each test group. In three test groups, the products were mixed in 100 ml of water and were administered orally twice a day. As the daily dose for one test subject, 12 g allulose in the high-dose group, 6 g allulose and 6 g anhydrous glucose in the low-dose group, and 12 g anhydrous glucose in the control group were divided and provided twice a day. It was administered from the day after the random assignment day (0 day), and was taken with drinking water twice at morning and evening with meals for 12 weeks. In order to evaluate the degree of fat deposition in the liver at the time of hospital visit 2 and visit 5, the HU of liver, HU of spleen, HU difference of liver and spleen (Liver minus Spleen), and HU ratio of liver and spleen (Ratio Between Liver and Spleen) after 12 weeks compared to the base time were measured. CT attenuation values (Hounsfield units) were measured in regions of interest (ROI) selected as a homogeneous place avoiding blood vessels in the right lobe of liver and spleen in one non-contrast-enhanced abdominal CT image including both liver and spleen three times, and the average value was taken as each CT attenuation number. Then, the size of each region of interest was designated equally as 120 mm^2. Through liver CT, for HU of liver, HU of spleen, HU difference of liver and spleen (Liver minus Spleen), and HU ratio of liver and spleen (Ratio Between Liver and Spleen) after 12 weeks, technical statistics (mean, standard deviation, median value, minimum value, maximum value) were proposed for the average change compared to the base time. The comparative statistic test for the three groups was performed using ANOVA or Kruscal-Wallis test by testing whether data were normally distributed. When there was a significant difference between the three groups, the multiple comparisons were conducted through Tukey-Kramer method. In order to find out whether there was a difference in the mean change in a group, it was analyzed using Paired t-test or Wilcoxon's signed rank test.

On the set-up of series [3]: species or system human. To be noted: in vivo. The method, then:
Furthermore, the difference of the average change between the three groups at 12 weeks compared to the base time for the items was analyzed in the laboratory test.

[4] abbreviates: high-dose group: allulose 12 g/d oral, 12 weeks.
Setting [5] is: high-dose group: allulose 12 g/d oral.
The mark [6] stands for this setting: low-dose group: allulose 6 g/d + anhydrous glucose 6 g/d oral, 12 weeks.
[7] abbreviates: low-dose group: allulose 6 g/d + anhydrous glucose 6 g/d oral.
Setting [8] is: high-dose group: allulose 12 g/d oral, N 33.
Setting [9] is: low-dose group: allulose 6 g/d + anhydrous glucose 6 g/d oral, N 32.

Turning to `O=C(CO)C(O)C(O)C(O)CO` (stereo not drawn) [allulose], in series [1] (allulose administration groups, 12 weeks, control reduced by 0.61 kg), the “lean body mass before and after administration” value was “did not show a difference before and after administration”. The “body fat before and after administration” value in series [1] (allulose low-dose group and high-dose group, 12 weeks) is “slightly increased, but there was no statistically significant difference before and after administration”. The “body fat accumulation and muscle mass reduction” value in series [1] (conclusion from analysis of body components, 12 weeks) was “inhibited”. Besides, in series [1] (setting [4]), the “Lean, 12 W, Mean” value came to 40.24 kg and the “Fat, 12 W, Mean” value was 26.31 kg. Moreover, in series [1] (setting [5]), the “Fat, Difference (average change at 12 weeks compared to base time)” value came to 0.25 ± 1.34 kg and the “Lean, Difference (12 W vs baseline)” value was -0.22 ± 1.08 kg. In series [1] (setting [6]), the “Lean, 12 W, Mean” value was 42.26 kg and the “Fat, 12 W, Mean” value was 26.80 kg. Further, in series [1] (setting [7]), the “Fat, Difference (average change at 12 weeks compared to base time)” value came to 0.16 ± 0.91 kg and the “Lean, Difference (12 W vs baseline)” value came to 0.05 ± 0.89 kg. In series [2] (setting [5]), the “Liver HU Mean, 12 W, Mean” value is given as 57.49 HU and the “Liver HU Mean, Difference (12 W vs base line)” value was −0.78 ± 5.60 HU. In series [2] (setting [8]), the “Liver - Spleen HU (Liver minus Spleen), 12 W, Mean” value turned out to be 7.19 HU; the “Spleen HU Mean, 12 W, Mean” value came to 50.30 HU; the “Liver - Spleen HU, Difference (12 W vs base line)” value is on record as −1.28 ± 5.36 HU; the “Spleen HU Mean, Difference (12 W vs base line)” value is reported as 0.50 ± 2.77 HU. In addition, in series [2] (setting [7]), the “Liver HU Mean, 12 W, Mean” value was found to be 55.17 HU and the “Liver HU Mean, Difference (12 W vs base line)” value is −0.69 ± 5.17 HU. Further, in series [2] (setting [9]), the “Liver - Spleen HU (Liver minus Spleen), 12 W, Mean” value amounted to 4.75 HU; the “Spleen HU Mean, 12 W, Mean” value is listed as 50.66 HU; the “Liver - Spleen HU, Difference (12 W vs base line)” value is −0.55 ± 5.43 HU; the “Spleen HU Mean, Difference (12 W vs base line)” value is listed as −0.41 ± 2.34 HU. Moreover, the “normality of the urine test” value in series [3] is listed as “no clinically significant abnormal subject”.

For the origin of these results see patent US11260066B2, “Inhibiting reduction of lean body mass and inhibiting accumulation of liver fat by administering allulose” (SAMYANG CORPORATION, priority 2017, dated 2022).
